Consider ten molecules from ChEMBL document CHEMBL1201862, “PubChem BioAssay data set” (2004).

Calls of active or inactive are those of the source. Rule as the data show it, for most assays here: actives have a measured EC50 and inactives only a lower limit. Some results are limits rather than exact numbers.

Assay [1] is described as follows: luciferase reporter signal suppression in cells – H4 neuroglioma cells, luminescence, dose response (AID 1990). The format is functional, cell-based.
Assay [2] deals with BJ. The assay is described as follows: BJ-TERT fibroblast viability loss – cell-based, RAS-independent, luminescence, dose response (AID 1933). The conditions noted are these: Homo sapiens. The class given is functional.
Assay [3] can be described thus: cells. The class given is functional, cell-based.
The nature of assay [4]: Luminescence Cell-Based Dose Response HTS to Identify Inhibitors of 5'UTR Stem-Loop Driven Prion Protein mRNA Translation in H4 Neuroglioblastoma Cells. [Related pubchem assays: 1827 (Project Summary), 1813 (Primary HTS)]. The format is functional.
A short description of assay [5]: alpha-synuclein stem-loop luciferase translation blockers – H4 neuroglioma cells, luminescence, confirmation (AID 1988). The format is functional, cell-based.
In assay [6] the test system is BJ. Nature of the assay: cells. The format is functional, cell-based. The conditions noted are these: Homo sapiens.
The nature of assay [7]: cells. The format is functional, cell-based. The source holds these as a separate data set.
The subject of assay [8] is BJ. The assay is described as follows: BJ-TERT-LT-ST fibroblast viability loss – cell-based, RAS-independent, luminescence, dose response (AID 1935).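 Also: BJ fibroblasts immortalized with TERT plus LT and ST oncogenes.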 The format is functional. As to conditions: Homo sapiens.
Assay [9] can be described thus: DRD fibroblast viability loss – cell-based, non-viral oncogenic, luminescence, dose response (AID 1934). The format is functional. As to conditions: Homo sapiens.
Assay [10] deals with BJ. The assay is described as follows: growth inhibition of engineered Ras-driven BJ cells – cell-based, alamar blue fluorescence, cherrypicked samples, dose response (AID 2631).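 Also: confirmatory dose-response assay in RAS-dependent BJ fibroblasts engineered with TERT, LT and ST, with cytotoxicity read by fluorescence.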 The conditions noted are these: Homo sapiens. The class given is functional.
Another assay concerns INS1. The assay is described as follows: INS-1E survival protection against cytokine death – cell-based, luminescence, retest, dose response (AID 449756).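 Also: cell death triggered by IL-1 beta plus TNF-alpha plus IFN-gamma mixture; protective hits raise ATP signal compared with cytokine alone wells.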 The conditions noted are these: Rattus norvegicus. The format is functional.
In assay [11] the target is 26S proteasome non-ATPase regulatory subunit 14 (Homo sapiens, UniProt O00487). The assay is described as follows: inhibition of proteasome subunit RPN11 – biochemical, fluorescence polarization, uHTS hits, confirmation (AID 602368). The format is functional.
Sequence of 26S proteasome non-ATPase regulatory subunit 14 (O00487 whole entry): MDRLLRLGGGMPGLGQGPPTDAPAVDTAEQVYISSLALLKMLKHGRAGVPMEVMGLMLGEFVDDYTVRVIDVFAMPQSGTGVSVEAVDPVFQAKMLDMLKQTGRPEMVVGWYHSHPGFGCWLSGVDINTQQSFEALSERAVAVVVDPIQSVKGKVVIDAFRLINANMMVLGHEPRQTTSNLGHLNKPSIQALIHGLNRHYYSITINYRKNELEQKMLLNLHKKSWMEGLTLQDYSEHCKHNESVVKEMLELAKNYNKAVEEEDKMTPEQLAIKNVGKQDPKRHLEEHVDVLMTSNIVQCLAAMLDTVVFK
Assay [12] addresses 72 kDa type IV collagenase (Homo sapiens, UniProt P08253). The assay is described as follows: Dose Response validation of uHTS RPN11 inhibitor hits using a MMP-2 Fluorescence assay. The class given is functional.
Another assay concerns the target Prothrombin (Bos taurus, UniProt P00735). Nature of the assay: thrombin protease inhibitors – biochemical, fluorescence polarization, uHTS hits, dose response (AID 602369). The class given is functional.
Another assay deals with T1, Protein skinhead-1 (Caenorhabditis elegans, UniProt P34707).
T1 sequence (P34707 whole entry): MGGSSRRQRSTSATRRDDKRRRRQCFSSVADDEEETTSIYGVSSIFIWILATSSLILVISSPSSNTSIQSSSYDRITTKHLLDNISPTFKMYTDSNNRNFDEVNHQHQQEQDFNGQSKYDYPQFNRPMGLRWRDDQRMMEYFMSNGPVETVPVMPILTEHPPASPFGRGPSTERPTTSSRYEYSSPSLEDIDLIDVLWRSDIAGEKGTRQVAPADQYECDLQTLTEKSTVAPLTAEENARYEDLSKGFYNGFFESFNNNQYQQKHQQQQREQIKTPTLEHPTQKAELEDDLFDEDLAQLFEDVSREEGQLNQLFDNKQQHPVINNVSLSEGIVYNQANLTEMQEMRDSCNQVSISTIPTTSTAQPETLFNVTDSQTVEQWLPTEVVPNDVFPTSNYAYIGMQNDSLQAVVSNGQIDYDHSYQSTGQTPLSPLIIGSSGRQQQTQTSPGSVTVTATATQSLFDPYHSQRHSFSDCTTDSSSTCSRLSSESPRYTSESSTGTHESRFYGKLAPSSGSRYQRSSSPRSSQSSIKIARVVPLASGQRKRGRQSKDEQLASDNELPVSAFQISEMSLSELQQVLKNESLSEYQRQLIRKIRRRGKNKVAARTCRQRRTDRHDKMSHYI
The class given is functional.

The next assay deals with Protein Wnt-3a (Mus musculus, UniProt P27467). Nature of the assay: antagonism of Wnt3a pathway luciferase reporter – Wnt-LIGHT cells, luminescence, selectivity assay for Gli-SUFU antagonist project, dose response (AID 651570).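 Also: Wnt-LIGHT reporter cells stimulated with conditioned medium from Wnt3a-producing cells.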 The class given is functional. As to conditions: read-out: IC50_Mean.
Sequence of Protein Wnt-3a (P27467 whole entry): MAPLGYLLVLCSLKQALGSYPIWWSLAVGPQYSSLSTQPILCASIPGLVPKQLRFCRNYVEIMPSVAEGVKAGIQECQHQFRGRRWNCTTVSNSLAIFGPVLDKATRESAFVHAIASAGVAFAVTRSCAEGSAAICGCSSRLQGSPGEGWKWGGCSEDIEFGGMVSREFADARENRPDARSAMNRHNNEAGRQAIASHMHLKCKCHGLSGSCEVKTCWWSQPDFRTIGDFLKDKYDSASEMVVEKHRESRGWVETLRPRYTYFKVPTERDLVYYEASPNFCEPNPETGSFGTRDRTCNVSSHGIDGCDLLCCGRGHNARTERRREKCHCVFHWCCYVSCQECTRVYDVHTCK
Assay [13] is described as follows: A Cell Based Secondary Assay To Explore Cytotoxicity of Compounds that Sensitize Mycobacterium Tuberculosis to Beta-Lactam Antibiotics. The format is functional.
Another assay has as its target Melanocortin receptor 4 (Homo sapiens, UniProt P32245). The class given is functional, cell-based.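 Also: Cell-based assay with luminescence read-out, confirmatory dose-response testing for agonist activity of biased ligands at MC4R; human U2OS cells with tagged receptor and beta-arrestin; potency of agonists that increase receptor coupling to beta-arrestin.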
Assay [14] in a line: NIH-3T3 fibroblast cytotoxicity, dose response, cytotoxicity control, cell-based, fluorescence, Alamar Blue, secondary assay (AID 2327).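 Also: NIH-3T3 mouse fibroblasts cultured with fluconazole at 8 µg/mL.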 The class given is functional.
Assay [15] concerns Streptococcus sp. 'group A'. The assay is described as follows: Streptococcus pyogenes SK(-)GAS viability under kanamycin – luminescence, BacTiterGlo, confirmation, counter-screen for streptokinase expression inhibitor project, dose response (AID 1900). The format is functional, organism-based.
Another assay concerns the target T2, Streptokinase A (Streptococcus pyogenes serotype M1, UniProt P10520).
T2 sequence (P10520 whole entry): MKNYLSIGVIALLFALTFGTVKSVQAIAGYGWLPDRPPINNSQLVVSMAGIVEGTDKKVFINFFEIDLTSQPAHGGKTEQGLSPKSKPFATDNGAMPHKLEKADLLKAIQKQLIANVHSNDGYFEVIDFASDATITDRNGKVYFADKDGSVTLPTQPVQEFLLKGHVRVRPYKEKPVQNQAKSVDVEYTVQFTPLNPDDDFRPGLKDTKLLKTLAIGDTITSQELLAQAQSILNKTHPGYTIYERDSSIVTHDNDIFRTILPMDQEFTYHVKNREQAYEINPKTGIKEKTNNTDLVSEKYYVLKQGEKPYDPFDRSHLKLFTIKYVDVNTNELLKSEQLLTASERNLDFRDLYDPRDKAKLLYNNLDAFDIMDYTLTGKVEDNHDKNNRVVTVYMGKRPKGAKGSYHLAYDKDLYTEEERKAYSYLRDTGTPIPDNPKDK
Nature of the assay: viability-normalized secreted streptokinase activity reduction – plasminogen activation absorbance, OD405, dose response (AID 1914).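 Also: secreted streptokinase activity via plasminogen activation per viability signal from cell pellet.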 The format is functional, Streptococcus pyogenes M1 GAS.

Assay [16] in a line: fluconazole-exposed Candida albicans growth modulators – fluorescence, retest, confirmation (AID 2467). The class given is functional, cell-based.
Assay [17] in a line: microbe, parasite or virus in culture. As to conditions: Mycobacterium tuberculosis. The class given is functional.
The target in assay [18] is T3, Serine/threonine-protein phosphatase (Candida dubliniensis (strain CD36 / CBS 7987 / NCPF 3949 / NRRLY-17841) (Yeast), UniProt B9W6M3).
T3 sequence (B9W6M3 whole entry): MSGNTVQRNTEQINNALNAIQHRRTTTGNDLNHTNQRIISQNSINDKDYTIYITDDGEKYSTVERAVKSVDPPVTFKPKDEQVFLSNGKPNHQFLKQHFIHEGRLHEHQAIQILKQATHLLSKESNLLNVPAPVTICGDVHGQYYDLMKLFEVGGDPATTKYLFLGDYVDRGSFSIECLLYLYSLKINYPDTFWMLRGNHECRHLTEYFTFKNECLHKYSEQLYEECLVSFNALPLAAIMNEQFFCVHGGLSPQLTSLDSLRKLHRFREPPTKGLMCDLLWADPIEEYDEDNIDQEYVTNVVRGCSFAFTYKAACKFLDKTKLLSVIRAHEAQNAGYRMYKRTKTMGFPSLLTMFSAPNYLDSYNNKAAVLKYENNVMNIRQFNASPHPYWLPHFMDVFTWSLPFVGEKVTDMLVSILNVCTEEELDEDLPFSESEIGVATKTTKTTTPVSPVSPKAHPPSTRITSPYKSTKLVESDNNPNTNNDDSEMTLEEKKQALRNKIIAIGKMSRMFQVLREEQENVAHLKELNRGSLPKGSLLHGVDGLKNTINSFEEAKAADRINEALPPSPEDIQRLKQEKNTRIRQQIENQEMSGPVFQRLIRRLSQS
Nature of the assay: blockers of CaCl2-induced CDRE-lacZ signaling – S. cerevisiae, luminescence, secondary, dose response (AID 2388).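 Also: yeast reporter cells carrying a calcineurin-responsive lacZ construct stimulated with calcium chloride; luminescent beta-galactosidase reporter signal in whole cells rather than isolated phosphatase activity; potency for inhibition where a drop in reporter signal means calcineurin blockade.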 The class given is functional, cell-based.

Another assay deals with Streptococcus. The assay is described as follows: GAS UMAA2166 growth inhibition – luminescence, BacTiterGlo, counter-screen for streptokinase expression inhibitor project, dose response (AID 1915).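 Also: potency for reduction of bacterial viability or growth.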 The class given is functional, organism-based.
Assay [19] is described as follows: Luminescence Cell-Based Dose Retest to Confirm Inhibitors of Cancer Stem Cells. [Related pubchem assays (depositor defined):AID2717, AID2721]. The format is functional. As to conditions: Homo sapiens.
The target of assay [20] is ATP-dependent molecular chaperone HSP82 (Candida albicans (strain WO-1) (Yeast), UniProt C4YTQ8). The assay is described as follows: steroid-induced GRE reporter decrease in yeast – S. cerevisiae, luminescence, Hsp90 inhibitor project, dose response (AID 2400).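 Also: beta-galactosidase luminescence from glucocorticoid response element reporter as proxy for Hsp90 function; inhibitor potency where signal loss means Hsp90 inhibition.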 The class given is functional, cell-based.
Sequence of ATP-dependent molecular chaperone HSP82 (C4YTQ8 whole entry): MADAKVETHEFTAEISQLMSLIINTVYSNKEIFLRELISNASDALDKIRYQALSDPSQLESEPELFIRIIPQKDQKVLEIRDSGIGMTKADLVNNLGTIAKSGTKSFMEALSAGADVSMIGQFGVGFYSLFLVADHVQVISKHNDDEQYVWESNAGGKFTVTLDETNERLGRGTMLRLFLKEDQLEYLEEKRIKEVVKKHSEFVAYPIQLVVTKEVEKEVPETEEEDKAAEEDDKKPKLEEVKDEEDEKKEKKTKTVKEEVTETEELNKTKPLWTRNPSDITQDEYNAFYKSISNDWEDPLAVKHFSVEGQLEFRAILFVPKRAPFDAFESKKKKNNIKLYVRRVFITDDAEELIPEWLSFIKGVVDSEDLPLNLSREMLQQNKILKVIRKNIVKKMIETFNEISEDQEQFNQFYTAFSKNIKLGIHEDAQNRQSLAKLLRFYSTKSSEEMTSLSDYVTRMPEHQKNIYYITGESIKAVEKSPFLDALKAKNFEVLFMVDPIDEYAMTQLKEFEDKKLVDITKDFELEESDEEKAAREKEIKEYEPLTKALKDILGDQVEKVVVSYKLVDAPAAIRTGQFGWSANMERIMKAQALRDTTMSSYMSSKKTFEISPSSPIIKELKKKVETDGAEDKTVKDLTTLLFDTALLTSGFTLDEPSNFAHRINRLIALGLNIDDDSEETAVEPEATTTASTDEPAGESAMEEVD
The target in assay [21] is T4, RNA-binding protein pos-1 (Caenorhabditis elegans, UniProt G5EF15).
T4 sequence (G5EF15 whole entry): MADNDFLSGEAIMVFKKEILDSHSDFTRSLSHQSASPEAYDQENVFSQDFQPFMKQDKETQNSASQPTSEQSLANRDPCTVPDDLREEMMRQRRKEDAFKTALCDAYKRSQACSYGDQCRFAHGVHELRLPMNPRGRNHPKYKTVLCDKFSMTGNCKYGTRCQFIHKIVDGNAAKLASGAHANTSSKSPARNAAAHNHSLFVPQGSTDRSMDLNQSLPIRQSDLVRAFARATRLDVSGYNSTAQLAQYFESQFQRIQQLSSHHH
Nature of the assay: disruptors of C. elegans POS-1 RNA interaction – biochemical, fluorescence polarization, dose response (AID 1964).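 Also: purified POS-1 fused to maltose binding protein made in E. coli; potency of compounds blocking POS-1 binding to fluorescent RNA.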

The target of assay [22] is T5, Zinc finger protein mex-5 (Caenorhabditis elegans, UniProt Q9XUB2).
T5 sequence (Q9XUB2 whole entry): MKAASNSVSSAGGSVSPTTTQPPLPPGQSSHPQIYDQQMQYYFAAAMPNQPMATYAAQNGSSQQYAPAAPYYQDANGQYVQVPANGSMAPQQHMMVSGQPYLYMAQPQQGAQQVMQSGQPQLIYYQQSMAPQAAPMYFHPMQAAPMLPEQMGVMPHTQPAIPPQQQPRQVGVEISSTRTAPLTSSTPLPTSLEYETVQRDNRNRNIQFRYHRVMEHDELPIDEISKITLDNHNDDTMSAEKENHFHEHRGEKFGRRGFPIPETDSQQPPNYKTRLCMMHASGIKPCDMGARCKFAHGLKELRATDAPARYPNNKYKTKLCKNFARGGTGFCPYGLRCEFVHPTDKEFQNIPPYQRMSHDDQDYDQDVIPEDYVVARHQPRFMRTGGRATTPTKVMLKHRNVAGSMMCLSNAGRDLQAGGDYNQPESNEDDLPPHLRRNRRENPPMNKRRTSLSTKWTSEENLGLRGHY
Nature of the assay: potency of MEX-5 RNA-binding blockers – biochemical, C. elegans, fluorescence polarization, dose response (AID 1960).

Assay [23] addresses Photoreceptor-specific nuclear receptor (Homo sapiens, UniProt Q9Y5X4). The class given is functional, cell-based.
The subject of a further assay is Vero. The assay is described as follows: viability of Vero cells under compound – cytotoxicity control for flavivirus capping enzyme inhibitors (AID 588742). The class given is functional. As to conditions: Chlorocebus sabaeus.

Sequence of Melanocortin receptor 4 (P32245 whole entry): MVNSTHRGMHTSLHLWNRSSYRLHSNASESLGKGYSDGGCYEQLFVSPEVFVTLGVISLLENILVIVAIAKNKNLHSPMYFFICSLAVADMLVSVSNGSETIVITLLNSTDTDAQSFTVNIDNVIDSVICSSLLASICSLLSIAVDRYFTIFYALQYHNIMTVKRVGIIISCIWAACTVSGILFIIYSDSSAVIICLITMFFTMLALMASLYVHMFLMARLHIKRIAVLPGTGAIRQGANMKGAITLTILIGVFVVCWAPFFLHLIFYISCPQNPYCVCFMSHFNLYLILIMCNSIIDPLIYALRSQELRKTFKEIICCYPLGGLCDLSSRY
Sequence of Photoreceptor-specific nuclear receptor (Q9Y5X4 whole entry): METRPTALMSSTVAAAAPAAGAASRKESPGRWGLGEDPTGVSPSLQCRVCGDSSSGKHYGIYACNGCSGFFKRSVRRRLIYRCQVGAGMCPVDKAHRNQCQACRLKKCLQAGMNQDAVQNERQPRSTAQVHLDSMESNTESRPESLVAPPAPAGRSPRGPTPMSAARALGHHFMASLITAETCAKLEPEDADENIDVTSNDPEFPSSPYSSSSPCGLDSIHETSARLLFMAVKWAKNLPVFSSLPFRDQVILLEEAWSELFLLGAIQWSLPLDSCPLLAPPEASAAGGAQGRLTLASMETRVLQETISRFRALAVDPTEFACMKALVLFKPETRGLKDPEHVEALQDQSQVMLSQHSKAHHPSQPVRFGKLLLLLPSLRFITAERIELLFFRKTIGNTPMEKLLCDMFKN
Sequence of 72 kDa type IV collagenase (P08253 whole entry): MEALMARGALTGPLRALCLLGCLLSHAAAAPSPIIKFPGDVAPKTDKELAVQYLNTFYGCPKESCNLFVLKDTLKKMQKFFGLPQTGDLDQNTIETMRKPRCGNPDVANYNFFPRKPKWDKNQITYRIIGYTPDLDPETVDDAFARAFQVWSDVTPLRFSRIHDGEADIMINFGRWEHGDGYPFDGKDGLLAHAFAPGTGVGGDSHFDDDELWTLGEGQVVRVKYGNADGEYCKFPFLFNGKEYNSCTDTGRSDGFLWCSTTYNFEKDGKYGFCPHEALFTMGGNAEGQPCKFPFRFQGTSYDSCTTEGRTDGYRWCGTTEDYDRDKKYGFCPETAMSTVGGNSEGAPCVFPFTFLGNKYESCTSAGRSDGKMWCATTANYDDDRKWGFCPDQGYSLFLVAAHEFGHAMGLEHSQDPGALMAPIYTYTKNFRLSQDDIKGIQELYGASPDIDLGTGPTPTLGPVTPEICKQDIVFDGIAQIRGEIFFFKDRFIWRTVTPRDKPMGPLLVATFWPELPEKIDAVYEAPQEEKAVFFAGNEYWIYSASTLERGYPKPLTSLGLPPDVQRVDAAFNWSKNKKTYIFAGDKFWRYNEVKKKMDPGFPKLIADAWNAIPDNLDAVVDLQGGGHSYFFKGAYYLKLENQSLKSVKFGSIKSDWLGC

In the case of `C/C(=N\Nc1nc2ccccc2[nH]1)c1ccccn1`, the EC50 is 0.306 µM (active) in assay [1]; 0.672 µM (active) in the assay with BJ [2]; 6.03 µM (active) in the assay “cells [3]”; 0.154 µM (active) in assay [4]; 0.107 µM (active) in assay [5]; 4.7 µM (active) in the assay with BJ [6]. For the same molecule, the EC50 in “cells [7]” is 13.8 µM (active); with BJ [8] it was 1.38 µM (inconclusive); in assay [9] it was 2.24 µM (active); in the assay on BJ [10], < 0.104 µM (active). Also, in the assay on INS1, the concentration at half-maximal activity (AC50) is < 0.195 µM (active).
As for `Cc1ccc(NC2=NC(=O)/C(=C/c3cccs3)S2)cc1C`, the results for the IC50 (in assay [11]; in assay [12]; on Prothrombin) were 25.9 µM (active), > 100 µM (inactive) and 37.8 µM (active), respectively.
Take `CC(=O)Nc1cccc(OCC(=O)/C=C2\N(C)c3ccccc3C2(C)C)c1`: the IC50 on Protein skinhead-1 was > 100 µM (inactive); on Protein Wnt-3a, 50 µM (inactive).
For the molecule `Clc1ccc(/C=N/NC2=Nc3cccc4cccc2c34)cc1`, the CC50 in [13] was 21.4 µM (active). For the same molecule, the EC50 on Melanocortin receptor 4 was > 89.1 µM (inactive).
Turning to `O=C(Nc1nc2ccc(SC(F)F)cc2s1)c1ccc(NS(=O)(=O)c2ccc(F)c(F)c2)cc1`, the EC50 in [14] is 92.6 µM (active); in [15] it was 2.68 µM (active); at Streptokinase A, > 50 µM (not active); in [16], 2.18 µM (active); in assay [18], > 180 µM (inactive); with Streptococcus, 2.79 µM (active). Also, the EC50 was > 150 µM (inactive) in [20] and > 89.2 µM (inactive) at Melanocortin receptor 4. For the same molecule, the CC50 in [17] was 20.1 µM (active). For the same molecule, the AC50 in assay [19] was 2.45 µM (active).
In the case of `COc1ccc(N2C(=O)/C(=C/c3ccc(C)o3)C(=O)NC2=S)cc1`, the EC50 was > 300 µM (not active) in assay [21]; > 150 µM (not active) with BJ [2]; > 300 µM (not active) in assay [22]; 17 µM (active) in the assay with BJ [6]; > 75 µM (inconclusive) in the assay with BJ [8]; 15.9 µM (active) in assay [9]. In the assay on BJ [10], the EC50 was > 133 µM (inactive).
`Brc1ccc(-c2cn3c([n+]2-c2ccccc2)SCC3)cc1`: the IC50 at Protein Wnt-3a was 17.2 µM (active).
Regarding `C=C(C(=O)c1ccccc1)C(NC(C)(C)C)c1ccccc1` (centres undefined), the IC50 in assay [23] is 2.01 µM (active).
For `COC(CNC(=O)CSCc1nc(-c2ccc(SC)cc2)oc1C)OC`, in assay [23], the IC50 was 2.23 µM (active).
Regarding `CCn1c(=O)c(C(=O)CN2CCc3ccccc32)c(N)n(Cc2ccccc2)c1=O`, in the assay on Vero, the CC50 was > 40 µM (active).
